Experimental data reported in patent US20250387400A1, “TYK2 INHIBITORS” (BIOGEN MA INC., priority 2022, published 2025).
Where two headings read alike, the source gives them in different places.

What was measured:
Type in all cases: biochemical
[1] = target: T1, catalytic kinase (JH1) domain of human JAK3 (Homo sapiens, UniProt P52333); assay: ADP-Glo kinase assay, JAK3 kinase domain
T1 construct: Catalytic activities of recombinant JAK2, JAK3 and TYK2 kinase domain
Method: (§1) As summarized in Table 3 below, compounds of the disclosure were assessed for their ability to inhibit TYK2, JAK1, JAK2, and JAK3 activity.
(§2) The kinase activity of recombinantly generated catalytic kinase (also known as JH1) domain of human JAK1, JAK2, JAK3 and TYK2 were evaluated in a plate-based assay using the ADP-Glo™ Kinase Assay platform. […] The reactions proceed for 100 minutes and the catalytic activity is quantified by first depleting the unused ATP, converting the hydrolyzed ADP into ATP to generate luminescence in a luciferase reaction; which is the basis of the ADP-Glo platform. Compounds are tested at either 10 μM or 1 μM top concentration, 11 points of 3-fold dilution. The data is normalized and the percent activity versus log concentration of compound is fitted with a 4-parameter logistic model to generate a curve and an IC50 value.

[2] = target: T2, catalytic kinase (JH1) domain of human TYK2 (Homo sapiens, UniProt P29597); assay: ADP-Glo kinase assay, TYK2 kinase domain
T2 construct: recombinantly generated catalytic kinase (also known as JH1) domain of human JAK1, JAK2, JAK3 and TYK2
T2 sequence (P29597 897-1176 limits assumed): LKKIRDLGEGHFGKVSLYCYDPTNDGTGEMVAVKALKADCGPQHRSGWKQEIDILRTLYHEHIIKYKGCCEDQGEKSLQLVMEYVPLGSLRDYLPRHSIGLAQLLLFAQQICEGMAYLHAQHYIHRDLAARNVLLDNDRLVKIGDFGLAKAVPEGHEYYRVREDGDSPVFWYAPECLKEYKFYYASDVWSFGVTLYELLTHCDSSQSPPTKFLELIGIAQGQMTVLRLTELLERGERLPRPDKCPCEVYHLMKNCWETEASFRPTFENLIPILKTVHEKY
Method: as §1, §2

[3] = target: T3, catalytic kinase (JH1) domain of human JAK1 (Homo sapiens, UniProt P23458); assay: ADP-Glo kinase assay, JAK1 kinase domain
T3 construct: 4 nM of recombinant JAK1 kinase domain is used to phosphorylate
Method: as §1, §2

[4] = target: T4, catalytic kinase (JH1) domain of human JAK2 (Homo sapiens, UniProt O60674); assay: ADP-Glo kinase assay, JAK2 kinase domain
T4 construct: Catalytic activities of recombinant JAK2, JAK3 and TYK2 kinase domain
Method: as §1, §2

[5] = 0.3 nM recombinant JAK3 kinase domain, 50 μM JAK3-974 peptide, 4 μM ATP, 100 minutes, read-out: JAK3 biochem IC50 (nM) Mean
[6] = 2 nM recombinant TYK2 kinase domain, 50 μM JAK3-974 peptide, 10 μM ATP, 100 minutes, read-out: TYK2 biochem IC50 (nM) Mean
[7] = 4 nM recombinant JAK1 kinase domain, 50 μM JAK3-342 peptide, 35 μM ATP, 100 minutes, read-out: JAK1 biochem IC50 (nM) Mean
[8] = 0.2 nM recombinant JAK2 kinase domain, 50 μM JAK3-974 peptide, 15 μM ATP, 100 minutes, read-out: JAK2 biochem IC50 (nM) Mean

T3 sequence (P23458 875-1153 limits assumed): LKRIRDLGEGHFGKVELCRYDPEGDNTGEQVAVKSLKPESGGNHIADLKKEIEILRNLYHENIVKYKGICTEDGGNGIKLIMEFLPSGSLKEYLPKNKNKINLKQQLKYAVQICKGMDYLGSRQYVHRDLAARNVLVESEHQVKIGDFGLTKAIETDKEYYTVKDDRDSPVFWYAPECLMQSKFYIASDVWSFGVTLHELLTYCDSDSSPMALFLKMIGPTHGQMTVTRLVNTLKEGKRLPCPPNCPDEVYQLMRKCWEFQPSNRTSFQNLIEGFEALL
T1 sequence (P52333 822-1111 limits assumed): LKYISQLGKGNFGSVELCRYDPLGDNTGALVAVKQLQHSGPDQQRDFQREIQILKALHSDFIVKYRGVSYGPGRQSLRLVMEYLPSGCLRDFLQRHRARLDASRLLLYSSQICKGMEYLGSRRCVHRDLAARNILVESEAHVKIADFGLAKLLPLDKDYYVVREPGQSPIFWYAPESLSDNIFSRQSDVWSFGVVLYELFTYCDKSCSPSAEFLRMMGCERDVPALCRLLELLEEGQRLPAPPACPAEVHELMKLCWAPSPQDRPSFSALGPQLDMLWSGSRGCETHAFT
T4 sequence (O60674 849-1124 limits assumed): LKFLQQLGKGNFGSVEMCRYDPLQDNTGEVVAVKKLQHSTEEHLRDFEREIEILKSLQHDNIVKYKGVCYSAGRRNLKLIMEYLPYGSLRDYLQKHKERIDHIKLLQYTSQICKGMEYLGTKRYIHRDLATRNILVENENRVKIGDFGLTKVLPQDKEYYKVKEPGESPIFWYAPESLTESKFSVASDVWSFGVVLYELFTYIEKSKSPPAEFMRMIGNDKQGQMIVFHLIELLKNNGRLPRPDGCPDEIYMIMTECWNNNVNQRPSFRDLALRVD

Row | SMILES | IC50 [1, 5] | IC50 [2, 6] | IC50 [3, 7] | IC50 [4, 8] | IC50 [1] | IC50 [2] | IC50 [3] | IC50 [4]
1 | COCC[C@]1(C#N)C[C@@H](N2C3CCC2CN(c2ccnn4cc(-c5cnn(C)c5)cc24)C3)C1 [Example 39, (1s,3s)-1-(2-methoxyethyl)-3-(3-(6-(1-methyl-1H-pyrazol-4-yl)pyrrolo[1,2-b]pyridazin-4-yl)-3,8-diazabicyclo[3.2.1]octan-8-yl)cyclobutane-1-carbonitrile] | 460 nM | 6.95 nM | 88 nM | 54 nM | – | – | – | –
2 | Cn1cc(-c2cc3c(N4CC5CCC(C4)N5[C@H]4C[C@@H](C#N)C4)ccnc3[nH]2)cn1 [Example 16, (1S,3s)-3-(3-(2-(1-methyl-1H-pyrazol-4-yl)-1H-pyrrolo[2,3-b]pyridin-4-yl)-3,8-diazabicyclo[3.2.1]octan-8-yl)cyclobutane-1-carbonitrile] | 550 nM | 17.5 nM | 315 nM | 117 nM | – | – | – | –
3 | Cn1cc(-c2cc3c(N4CC5CCC(C4)N5[C@H]4CC[C@H]4O)ccnn3c2)cn1 (racemic) [Example 50, rac-(1R,2S)-2-(3-(6-(1-methyl-1H-pyrazol-4-yl)pyrrolo[1,2-b]pyridazin-4-yl)-3,8-diazabicyclo[3.2.1]octan-8-yl)cyclobutan-1-ol] | > 10000 nM | 505 nM | > 10000 nM | 7350 nM | – | – | – | –
4 | CO[C@H]1CC[C@@H]1N1C2CCC1CN(c1ccnn3cc(-c4cnn(C)c4)cc13)C2 (racemic) [Example 51, Rac-4-(8-((1S,2S)-2-methoxycyclobutyl)-3,8-diazabicyclo[3.2.1]octan-3-yl)-6-(1-methyl-1H-pyrazol-4-yl)pyrrolo[1,2-b]pyridazine] | – | – | – | – | > 10000 nM | 745 nM | > 10000 nM | 6050 nM
5 | Cc1cc(-c2cc3c(N4CC5CCC(C4)N5[C@H]4C[C@@H](C#N)C4)ccnn3c2)on1 [Example 59, (1S,3s)-3-(3-(6-(3-methylisoxazol-5-yl)pyrrolo[1,2-b]pyridazin-4-yl)-3,8-diazabicyclo[3.2.1]octan-8-yl)cyclobutane-1-carbonitrile] | – | – | – | – | 220 nM | 4.25 nM | 65.5 nM | 26 nM
6 | Cn1cc(-c2cc3c(N4CC5CCC(C4)N5[C@H]4C[C@H](S(C)(=O)=O)C4)ccnn3c2)cn1 [Example 37, 6-(1-methyl-1H-pyrazol-4-yl)-4-(8-((1r,3r)-3-(methylsulfonyl)cyclobutyl)-3,8-diazabicyclo[3.2.1]octan-3-yl)pyrrolo[1,2-b]pyridazine] | – | – | – | – | > 10000 nM | 310 nM | 4300 nM | 1450 nM
7 | N#C[C@H]1C[C@@H](N2C3CCC2CN(c2ccnn4cc(-c5cnn(C(F)F)c5)cc24)C3)C1 [Example 60, (1S,3s)-3-(3-(6-(1-(difluoromethyl)-1H-pyrazol-4-yl)pyrrolo[1,2-b]pyridazin-4-yl)-3,8-diazabicyclo[3.2.1]octan-8-yl)cyclobutane-1-carbonitrile] | 132 nM | 2.38 nM | 25.5 nM | 17.5 nM | – | – | – | –
8 | Cn1cc(-c2cc3c(N4CC5CCC(C4)N5C4CC(C#N)C4)ccnc3[nH]2)cn1 [Example 17, (1R,3r)-3-(3-(2-(1-methyl-1H-pyrazol-4-yl)-1H-pyrrolo[2,3-b]pyridin-4-yl)-3,8-diazabicyclo[3.2.1]octan-8-yl)cyclobutane-1-carbonitrile] | 67.7 nM | 2.8 nM | 36.7 nM | 20 nM | – | – | – | –
9 | Cn1cc(-c2nc3c(N4CC5CCC(C4)N5[C@H]4C[C@H](C#N)C4)ccnc3[nH]2)cn1 [Example 3, (1R,3r)-3-(3-(2-(1-methyl-1H-pyrazol-4-yl)-3H-imidazo[4,5-b]pyridin-7-yl)-3,8-diazabicyclo[3.2.1]octan-8-yl)cyclobutane-1-carbonitrile] | 1450 nM | 44 nM | 430 nM | 236 nM | – | – | – | –
10 | COc1cc(-c2cc3c(N4CC5CCC(C4)N5C4COC4)ccnc3[nH]2)ccn1 [Example 18, 2-(2-methoxypyridin-4-yl)-4-(8-(oxetan-3-yl)-3,8-diazabicyclo[3.2.1]octan-3-yl)-1H-pyrrolo[2,3-b]pyridine] | > 1000 nM | 30.5 nM | 49.5 nM | 97 nM | – | – | – | –
11 | Cn1cc(-c2cc3c(N4CC5CCC(C4)N5[C@H]4C[C@H](C#N)C4(C)C)ccnn3c2)cn1 (single isomer, unassigned) [Example 46] | – | – | – | – | 1850 nM | 34 nM | 955 nM | 215 nM
12 | Cn1cc(-c2cc3c(N4CC5CCC(C4)N5[C@H]4C[C@@H](C#N)C4(C)C)ccnn3c2)cn1 (single isomer, unassigned) [Example 47] | – | – | – | – | 130 nM | 2.33 nM | 72.3 nM | 17.3 nM

Now from value to compound, other results behind:

Row | IC50 [1, 5] | IC50 [2, 6] | IC50 [3, 7] | IC50 [4, 8] | SMILES | IC50 [1] | IC50 [2] | IC50 [3] | IC50 [4]
13 | > 10000 nM | 367 nM | > 10000 nM | 4670 nM | CO[C@H]1C[C@@H](N2C3CCC2CN(c2ccnn4cc(-c5cnn(C)c5)cc24)C3)C1 [Example 30, 4-(8-((1s,3S)-3-methoxycyclobutyl)-3,8-diazabicyclo[3.2.1]octan-3-yl)-6-(1-methyl-1H-pyrazol-4-yl)pyrrolo[1,2-b]pyridazine] | – | – | – | –
14 | 690 nM | 13 nM | 134 nM | 108 nM | Cc1cc(-c2cc3c(N4CC5CCC(C4)N5C4CC(C#N)C4)ccnn3c2)cnn1 (stereo not shown) [Example 57, 3-(3-(6-(6-methylpyridazin-4-yl)pyrrolo[1,2-b]pyridazin-4-yl)-3,8-diazabicyclo[3.2.1]octan-8-yl)cyclobutane-1-carbonitrile] | – | – | – | –
15 | > 10000 nM | 435 nM | 6250 nM | 5050 nM | Cn1cc(-c2cc3c(N4CC5CCC(C4)N5C4CC(O)C4)ccnn3c2)cn1 (stereo not shown) [Example 25, 3-(3-(6-(1-methyl-1H-pyrazol-4-yl)pyrrolo[1,2-b]pyridazin-4-yl)-3,8-diazabicyclo[3.2.1]octan-8-yl)cyclobutan-1-ol] | – | – | – | –
16 | > 10000 nM | 205 nM | 9200 nM | 4000 nM | Cn1cc(-c2cc3c(N4CC5CCC(C4)N5[C@H]4C[C@H](O)C4)ccnn3c2)cn1 [Example 31, (1R,3r)-3-(3-(6-(1-methyl-1H-pyrazol-4-yl)pyrrolo[1,2-b]pyridazin-4-yl)-3,8-diazabicyclo[3.2.1]octan-8-yl)cyclobutan-1-ol] | – | – | – | –
17 | 4250 nM | 19 nM | 230 nM | 380 nM | COC1CC(N2C3CCC2CN(c2ccnn4cc(-c5cnn(C)c5)cc24)C3)C1 (stereo not shown) [Example 24, 4-(8-(3-methoxycyclobutyl)-3,8-diazabicyclo[3.2.1]octan-3-yl)-6-(1-methyl-1H-pyrazol-4-yl)pyrrolo[1,2-b]pyridazine] | – | – | – | –
18 | 9400 nM | 195 nM | 2400 nM | 2700 nM | Cn1cc(-c2cc3c(N4CC5CCC(C4)N5[C@H]4C[C@H](CC#N)C4)ccnn3c2)cn1 [Example 45, 2-((1r,3r)-3-(3-(6-(1-methyl-1H-pyrazol-4-yl)pyrrolo[1,2-b]pyridazin-4-yl)-3,8-diazabicyclo[3.2.1]octan-8-yl)cyclobutyl)acetonitrile] | – | – | – | –
19 | 2150 nM | 14.5 nM | 310 nM | 185 nM | Cn1cc(-c2cc3c(N4CC5CCC(C4)N5C4COC4)ccnn3c2)cn1 [Example 23, 6-(1-methyl-1H-pyrazol-4-yl)-4-(8-(oxetan-3-y1)-3,8-diazabicyclo[3.2.1]octan-3-yl)pyrrolo[1,2-b]pyridazine] | – | – | – | –
